27 molecules from ChEMBL document CHEMBL4627403, “Development of Selective Steroid Inhibitors for the Glucose-6-phosphate Dehydrogenase from Trypanosoma cruzi” (ACS Med Chem Lett, 2020) can be followed below.

For data set [1], the system named is H9c2. Description: Cytotoxicity against rat H9c2 cells at 20 uM after 72 hrs by Hoechst 33342 staining based fluorescence microscopy. Format: cell-based. The conditions noted are these: h9c2, 72 h.
Data set [2] concerns Trypanosoma cruzi. Put plainly: Antitrypanosomal activity against Trypanosoma cruzi Y amastigotes infected in rat H9C2 cells after 72 hrs by Hoechst 33342 staining based fluorescence microscopy. Format: functional, organism-based. The note with it: H9c2, 72 h.
Data set [3] has as its system Trypanosoma cruzi. Description: Antitrypanosomal activity against Trypanosoma cruzi Y amastigotes infected in rat H9C2 cells assessed as reduction in parasite infection at 20 uM after 72 hrs by Hoechst 33342 staining based fluorescence microscopy. Format: functional, organism-based.
Data set [4] concerns H9c2. Description: Cytotoxicity against rat H9c2 cells after 72 hrs by Hoechst 33342 staining based fluorescence microscopy. In kind it is cell-based. The conditions noted are these: H9c2, 72 h.
Data set [5] has as its system Trypanosoma cruzi. Description: Antitrypanosomal activity against Trypanosoma cruzi Y amastigotes infected in rat H9C2 rat cells assessed as reduction in number of infected cells at 10 uM after 72 hrs by Hoechst 33342 staining based fluorescence microscopy. In kind it is functional, organism-based.
Data set [6] can be described thus: Selectivity index, ratio of EC50 for cytotoxicity against rat H9C2 cells to EC50 for antitrypanosomal activity against Trypanosoma cruzi Y amastigotes infected in rat H9C2 cells. In kind it is toxicity, cell-based. The note with it: read-out: Ratio EC50.
The nature of data set [7]: Inhibition of recombinant Trypanosoma cruzi G6PDH expressed in Escherichia coli by fluorescence assay.
A short description of data set [8]: Selectivity index, ratio of IC50 for human G6PDH to IC50 for Trypanosoma cruzi G6PDH.
The target of data set [9] is T1, Glucose-6-phosphate 1-dehydrogenase (Homo sapiens, UniProt P11413). Description: Inhibition of recombinant human G6PDH expressed in Escherichia coli by fluorescence assay.
In data set [10] the target is T1, Glucose-6-phosphate 1-dehydrogenase. Description: Inhibition of recombinant human G6PDH expressed in Escherichia coli at 80 uM by fluorescence assay.

pEC50, pIC50: −log10 of the molar value. Calls of active or inactive are those of the source. The calls are words filed in the database; no cut-off is given here.

T1 sequence (P11413 whole entry): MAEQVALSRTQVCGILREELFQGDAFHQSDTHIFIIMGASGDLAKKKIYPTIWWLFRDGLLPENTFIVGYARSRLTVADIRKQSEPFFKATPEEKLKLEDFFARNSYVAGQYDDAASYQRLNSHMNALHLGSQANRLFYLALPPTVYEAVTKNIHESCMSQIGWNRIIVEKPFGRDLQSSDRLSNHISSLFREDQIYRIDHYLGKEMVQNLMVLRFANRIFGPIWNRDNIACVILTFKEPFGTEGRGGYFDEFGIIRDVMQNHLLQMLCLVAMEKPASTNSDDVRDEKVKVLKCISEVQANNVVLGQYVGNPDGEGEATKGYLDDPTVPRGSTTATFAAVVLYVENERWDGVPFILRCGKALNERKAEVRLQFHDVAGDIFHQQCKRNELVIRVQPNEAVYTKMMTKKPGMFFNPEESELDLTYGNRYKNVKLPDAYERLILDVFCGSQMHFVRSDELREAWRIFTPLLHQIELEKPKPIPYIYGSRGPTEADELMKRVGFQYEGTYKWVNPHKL

Broadly, the pEC50 is −log10 of the EC50, conventionally taken in molar units. Higher therefore signals a low EC50. For the molecule `CC(C)CO[C@H]1CC[C@@]2(C)[C@@H](CC[C@@H]3[C@@H]2CC[C@]2(C)C(=O)[C@H](Br)C[C@@H]32)C1`, the Activity entry in the data set with H9c2 [1] was “Toxic”. The pEC50 is 5.38 with Trypanosoma cruzi [2] and 4.91 in the data set on H9c2 [4]. Further, the outcome in the data set with Trypanosoma cruzi [3] and in the data set on Trypanosoma cruzi [5] was Active. For the same molecule, the selectivity ratio in [6] came to 2.9.

The term pIC50 denotes the IC50 on a negative log10 scale, so that one unit is a factor of ten. As to `CN1CCN(CCS(=O)(=O)O[C@H]2CC[C@@]3(C)[C@@H](CC[C@@H]4[C@@H]3CC[C@]3(C)C(=O)CC[C@@H]43)C2)CC1`, the Activity result with H9c2 [1] was “Non-Toxic”. Moreover, in the data set with Trypanosoma cruzi [3], the outcome was inactive. The negative logarithm of the IC50 (pIC50) in data set [7] is 5.30.

Regarding `C[C@]12CCCC[C@@H]1CC[C@@H]1[C@@H]2CC[C@]2(C)C(=O)[C@H](Br)C[C@@H]12`, the Activity result with H9c2 [1] is reported as “Toxic”. Moreover, the negative logarithm of the EC50 (pEC50) in the data set with Trypanosoma cruzi [2] is 5.46; in the data set with H9c2 [4], 5.08. Moreover, the outcome in the data set on Trypanosoma cruzi [3] was Active. In data set [6], the selectivity ratio came out at 2.4.

Regarding `C[C@]12CC[C@H](O)C[C@@H]1CC[C@@H]1[C@@H]2CC[C@]2(C)C(=O)CC[C@@H]12` [EPIANDROSTERONE], in the data set with H9c2 [1], the Activity entry is “Non-Toxic”. In addition, the result in the data set on Trypanosoma cruzi [3] was inactive.

As for `C[C@]12CC[C@H](OS(C)(=O)=O)C[C@@H]1CC[C@@H]1[C@@H]2CC[C@]2(C)C(=O)[C@H](Br)C[C@@H]12`, the Activity entry in the data set on H9c2 [1] is on record as “Toxic”. Further, the pEC50 is 5.62 with Trypanosoma cruzi [2] and 5.12 in the data set with H9c2 [4]. In addition, the result in the data set on Trypanosoma cruzi [3] and in the data set with Trypanosoma cruzi [5] was Active. Besides, the Ratio IC50 in data set [8] was found to be 6. In addition, in data set [6], the selectivity ratio was determined as 3.1.

On to `CC(C)C(=O)O[C@H]1CC[C@@]2(C)[C@@H](CC[C@@H]3[C@@H]2CC[C@]2(C)C(=O)CC[C@@H]32)C1`, for which the Activity result in the data set on H9c2 [1] is “Non-Toxic”. For the same molecule, the outcome with Trypanosoma cruzi [3] was inactive. In data set [7], the pIC50 was below 5.52.

For `O=C(Cn1ccnc1[N+](=O)[O-])NCc1ccccc1` [BENZNIDAZOLE], the negative logarithm of the EC50 (pEC50) in the data set with H9c2 [4] was below 4.40. The outcome in the data set on Trypanosoma cruzi [5] was Active.

`CN1CCN(C[C@H](O)CO[C@H]2CC[C@@]3(C)[C@@H](CC[C@@H]4[C@@H]3CC[C@]3(C)C(=O)CC[C@@H]43)C2)CC1`: in data set [9], the pIC50 was below 4.40.

Take `CN1CCN(C[C@@H](O)CO[C@H]2CC[C@@]3(C)[C@@H](CC[C@@H]4[C@@H]3CC[C@]3(C)C(=O)CC[C@@H]43)C2)CC1`: the pIC50 in [9] was below 4.40.

Consider `CC(=O)O[C@H]1CC[C@@]2(C)[C@@H](CC[C@@H]3[C@@H]2CC[C@]2(C)C(=O)[C@H](Br)C[C@@H]32)C1`, for which the Activity entry with H9c2 [1] is on record as “Toxic”. In addition, the pEC50 was 5.07 with Trypanosoma cruzi [2] and 4.83 in the data set on H9c2 [4]. Moreover, the result in the data set with Trypanosoma cruzi [3] was Active. The Ratio IC50 in data set [8] is 160. In data set [7], the negative logarithm of the IC50 (pIC50) was 6.42 to 6.82. Moreover, the selectivity ratio in data set [6] is 1.7.

In the case of `C[C@]12CC[C@H](OS(C)(=O)=O)C[C@@H]1CC[C@@H]1[C@@H]2CC[C@]2(C)C(=O)CC[C@@H]12`, the Activity entry in the data set with H9c2 [1] is recorded as “Non-Toxic”. In addition, in the data set with Trypanosoma cruzi [3], the result was inactive. Also, in data set [8], the Ratio IC50 is 2.

Consider `C[C@]12CC[C@H](OCCS(=O)(=O)N3CCOCC3)C[C@@H]1CC[C@@H]1[C@@H]2CC[C@]2(C)C(=O)CC[C@@H]12`, for which the pIC50 in [7] is 4.70.

Turning to `C[C@]12CC[C@H](OC(=O)CN3CCOCC3)C[C@@H]1CC[C@@H]1[C@@H]2CC[C@]2(C)C(=O)CC[C@@H]12`, the pIC50 in [7] was 5.00.

In the case of `C[C@]12CC[C@H](OC[C@H](O)CN3CCOCC3)C[C@@H]1CC[C@@H]1[C@@H]2CC[C@]2(C)C(=O)CC[C@@H]12`, the pIC50 in data set [9] was below 4.40.

On to `C[C@]12CC[C@H](OC(=O)CCN3CCOCC3)C[C@@H]1CC[C@@H]1[C@@H]2CC[C@]2(C)C(=O)CC[C@@H]12`, for which the negative-log IC50 (pIC50) in [7] was 5.00.

In the case of `C=CCC(=O)O[C@H]1CC[C@@]2(C)[C@@H](CC[C@@H]3[C@@H]2CC[C@]2(C)C(=O)[C@H](Br)C[C@@H]32)C1`, in the data set with H9c2 [1], the Activity entry was “Toxic”. The negative-log EC50 (pEC50) in the data set on Trypanosoma cruzi [2] is 4.78; in the data set on H9c2 [4], 4.27. In addition, in the data set with Trypanosoma cruzi [3], the result was Active. Also, the negative-log IC50 (pIC50) in data set [7] is 6.42 to 6.82. Further, in data set [6], the selectivity ratio is 3.2.

Regarding `C[C@]12CC[C@H](OCC(=O)N3CCOCC3)C[C@@H]1CC[C@@H]1[C@@H]2CC[C@]2(C)C(=O)[C@H](Br)C[C@@H]12`, the Activity result with H9c2 [1] is listed as “Toxic”. Besides, the negative-log EC50 (pEC50) in the data set with Trypanosoma cruzi [2] is 5.49; in the data set with H9c2 [4] it was 5.25. In addition, in the data set on Trypanosoma cruzi [3], the outcome was Active. Moreover, in data set [8], the Ratio IC50 fell in the range of 5 to 10. The selectivity ratio in [6] is 1.8.

Take `CC(C)C(=O)O[C@H]1CC[C@@]2(C)[C@@H](CC[C@@H]3[C@@H]2CC[C@]2(C)C(=O)[C@H](Br)C[C@@H]32)C1`: the Ratio IC50 in [8] was above 400. The “inhibition (INH)” value in [10] is listed as “Not Active”. Besides, in [7], the negative-log IC50 (pIC50) was 6.42 to 6.82.

`C[C@]12CC[C@H](O)C[C@@H]1CC[C@@H]1[C@@H]2CC[C@]2(C)C(=O)[C@H](Br)C[C@@H]12` [16.ALPHA.-BROMOEPIANDROSTERONE]: the Activity entry with H9c2 [1] is on record as “Toxic”. Also, the pEC50 in the data set with Trypanosoma cruzi [2] is 5.19; in the data set with H9c2 [4] it was 4.89. The outcome in the data set with Trypanosoma cruzi [3] was Active. Further, in data set [8], the Ratio IC50 worked out at 2. In addition, in [6], the selectivity ratio was found to be 2.

In the case of `CO[C@H]1CC[C@@]2(C)[C@@H](CC[C@@H]3[C@@H]2CC[C@]2(C)C(=O)CC[C@@H]32)C1`, the Activity result in the data set on H9c2 [1] is recorded as “Non-Toxic”. In the data set on Trypanosoma cruzi [3], the result was inactive.

With `C[C@]12CC[C@H](OCCS(=O)(=O)N3CCOCC3)C[C@@H]1CC[C@@H]1[C@@H]2CC[C@]2(C)C(=O)[C@H](Br)C[C@@H]12`, the Activity result in the data set on H9c2 [1] is given as “Toxic”. Also, the negative logarithm of the EC50 (pEC50) is 5.62 in the data set with Trypanosoma cruzi [2] and 5.07 in the data set on H9c2 [4]. The result in the data set on Trypanosoma cruzi [3] and in the data set on Trypanosoma cruzi [5] was Active. Besides, the Ratio IC50 in [8] fell in the range of 5 to 10. In [6], the selectivity ratio amounted to 3.5.

As for `C=CCC(=O)O[C@H]1CC[C@@]2(C)[C@@H](CC[C@@H]3[C@@H]2CC[C@]2(C)C(=O)CC[C@@H]32)C1`, the Activity result in the data set with H9c2 [1] is recorded as “Non-Toxic”. Further, the result in the data set on Trypanosoma cruzi [3] was inactive. Further, the pIC50 in data set [7] is below 5.52.

As for `CN1CCN(CCC(=O)O[C@H]2CC[C@@]3(C)[C@@H](CC[C@@H]4[C@@H]3CC[C@]3(C)C(=O)CC[C@@H]43)C2)CC1`, the negative-log IC50 (pIC50) in data set [7] is 5.00.

Consider `C[C@]12CC[C@H](OS(=O)(=O)CCN3CCOCC3)C[C@@H]1CC[C@@H]1[C@@H]2CC[C@]2(C)C(=O)CC[C@@H]12`, for which the Activity result in the data set with H9c2 [1] is on record as “Non-Toxic”. In addition, the result in the data set on Trypanosoma cruzi [3] was inactive. The pIC50 in data set [7] is 5.30.

Regarding `CC(=O)O[C@H]1CC[C@@]2(C)[C@@H](CC[C@@H]3[C@@H]2CC[C@]2(C)C(=O)CC[C@@H]32)C1`, the Activity result with H9c2 [1] is “Non-Toxic”. For the same molecule, the result with Trypanosoma cruzi [3] was inactive. The negative logarithm of the IC50 (pIC50) in data set [7] was below 5.52.

With `CN1CCN(CC(=O)O[C@H]2CC[C@@]3(C)[C@@H](CC[C@@H]4[C@@H]3CC[C@]3(C)C(=O)CC[C@@H]43)C2)CC1`, in data set [7], the pIC50 was 5.00.

Take `C[C@]12CC[C@H](OC[C@@H](O)CN3CCOCC3)C[C@@H]1CC[C@@H]1[C@@H]2CC[C@]2(C)C(=O)CC[C@@H]12`: the negative logarithm of the IC50 (pIC50) in [9] was below 4.40.
